In patent US8501713B2, “Drug combinations for the treatment of duchenne muscular dystrophy” (Summit Corporation PLC, priority 2007, dated 2013):

System: Utrophin A promoter linked to a luciferase reporter gene
Experiment: Luciferase reporter assay (murine H2K cells)
Assay type: cell-based
Conditions: for activity at 10 µM: Mus musculus, H2K mdx, read-out: Activity
How it was run: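 Compound at 10 μM final was applied for 48 hrs to plated H2K mdx myoblasts (33° C, 10% CO2, interferon-containing medium) bearing a luciferase gene under the utrophin A promoter. Luminescence from lysed cells served as read-out.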

[1] = luciferase reporter assay in murine H2K cells, classified relative to control
[2] = luciferase level relative to control, H2K/mdx/Utro A reporter cells, compound 10 μM final concentration

Row | SMILES | Activity [1] | activity at 10 µM [2] [%] | other results
1 | Cc1cc(-c2nc3cc(N)ccc3o2)ccc1Br [Example 649] | +++ (Between 301% and 400% relative to control) | – | –
2 | CCCC(=O)Nc1ccc2oc(-c3cccc(F)c3)nc2c1 [Example 244, N-(2-(3-fluorophenyl)benzo[d]oxazol-5-yl)butyramide] | – | > 401 | –
3 | O=C(Nc1ccc(-c2nc3ccccc3s2)cc1)C1CC1 [Example 661] | +++ (Between 301% and 400% relative to control) | – | –
4 | COc1ccc(-c2nc3cc(N)ccc3[nH]2)cc1 [Example 535] | ++ (Between 201% and 300% relative to control) | – | –
5 | COc1ccc(-c2ccc3oc(-c4ccc(C)cc4)nc3c2)cc1 [Example 199, 5-(4-methoxyphenyl)-2-p-tolylbenzo[d]oxazole] | – | < 200 | –
6 | CC(C)C(=O)Nc1ccc2oc(-c3cccc(Cl)c3Cl)nc2c1 [Example 273, N-(2-(2,3-dichlorophenyl)benzo[d]oxazol-5-yl)isobutyramide] | – | > 401 | –
7 | CCc1ccc2oc(-c3ccc(N)cc3)nc2c1 [Example 553] | ++++ (Above 401% relative to control) | – | –
8 | CCS(=O)(=O)c1ccc2oc(-c3cccc(Cl)c3F)nc2c1 [Example 391, 2-(3-chloro-2-fluorophenyl)-5-(ethylsulfonyl)benzo[d]oxazole] | – | 201 to 300 | –
9 | Cc1ccc(-c2nc3cc(C(C)(C)C)ccc3o2)cc1 [Example 172, 5-tert-butyl-2-p-tolylbenzo[d]oxazole] | – | > 401 | –
10 | O=C(Nc1ccccc1F)C(=O)c1c[nH]c2ccccc12 [Example 689] | ++ (Between 201% and 300% relative to control) | – | –
11 | CCCC(=O)Nc1ccc2oc(-c3ccc(C(F)(F)F)cc3)nc2c1 [Example 125, N-(2-(4-(trifluoromethyl)phenyl)benzo[d]oxazol-5-yl)butyramide] | – | < 200 | –
12 | Cc1ccc(-c2nc3cc(NCc4ccccc4)ccc3o2)cc1 [Example 187, N-benzyl-2-p-tolylbenzo[d]oxazol-5-amine] | – | 301 to 400 | –
13 | CC(O)c1ccc2oc(-c3ccc(Cl)cc3)nc2c1 (stereo not drawn) [Example 446, 2-(4′-chlorophenyl)-5-(1′-hydroxyethyl)-benzoxazole] | – | > 401 | –
14 | Cc1ccc2oc(-c3ccc(Cl)c(N)c3)nc2c1 [Example 636] | +++ (Between 301% and 400% relative to control) | – | –
15 | O=C(Nc1nc2ccc(F)cc2s1)c1cccs1 [Example 658] | +++ (Between 301% and 400% relative to control) | – | –
16 | CC(C)C(=O)Nc1ccc2oc(-c3cc(F)ccc3Cl)nc2c1 [Example 344, N-(2-(2-chloro-5-fluorophenyl)benzo[d]oxazol-5-yl)isobutyramide] | – | < 200 | –
17 | CC(C)S(=O)(=O)c1ccc2oc(-c3ccc(Cl)cc3)nc2c1 [Example 281, 2-(4-chlorophenyl)-5-(isopropylsulfonyl)benzo[d]oxazole] | – | > 401 | –
18 | CC(=O)Nc1ccc(-c2ccc3oc(-c4ccc(Cl)cc4)nc3c2)cn1 [Example 358, N-(5-(2-(4-chlorophenyl)benzo[d]oxazol-5-yl)pyridin-2-yl)acetamide] | – | < 200 | –
19 | Cc1cc2nc(-c3ccc(N)cc3O)[nH]c2cc1C [Example 104, 5-amino-2-(5,6-dimethyl-1H-benzo[d]imidazol-2-yl)phenol] | – | 201 to 300 | –
20 | O=C(Cc1ccccc1)Nc1ccc2oc(-c3ccc(Cl)cc3)nc2c1 [Example 97, N-(2-(4-chlorophenyl)benzo[d]oxazol-5-yl)-2-phenylacetamide] | – | 201 to 300 | –

Row | SMILES | Activity [1] | activity at 10 µM [2] [%] | other results
21 | Nc1ccc2oc(NCc3ccc(Cl)cc3)nc2c1 [Example 381, N2-(4-chlorobenzyl)benzo[d]oxazole-2,5-diamine] | – | < 200 | –
22 | CSc1ccc(-c2nc3ccccc3[nH]2)cc1 [Example 543] | ++ (Between 201% and 300% relative to control) | – | –
23 | CC(=O)Nc1ccc(-c2nc3ccc(Cl)cc3o2)cc1 [Example 332, N-(4-(6-chlorobenzo[d]oxazol-2-yl)phenyl)acetamide] | – | 301 to 400 | –
24 | COc1ccc(-c2nc3cc(NC(=O)c4ccncc4)ccc3o2)cc1 [Example 134, N-(2-(4-methoxyphenyl)benzo[d]oxazol-5-yl)isonicotinamide] | – | < 200 | –
25 | O=C(Nc1ccc2oc(-c3ccccc3)nc2c1)c1ccc(F)cc1 [Example 31, 4-fluoro-N-(2-phenylbenzo[d]oxazol-5-yl)benzamide] | – | < 200 | –
26 | COc1ccc(-c2nc3cc([N+](=O)[O-])ccc3o2)cc1OC [Example 537] | + (Up to 200% relative to control) | – | –
27 | COc1ccccc1-c1nc2ccccc2s1 [Example 522] | + (Up to 200% relative to control) | – | –
28 | CN(C)c1ccc(-c2nc3ccccc3o2)cc1 [Example 486] | + (Up to 200% relative to control) | – | –
29 | CC(=O)Nc1ccc(-c2nc3cc(C)ccc3o2)cc1 [Example 662] | +++ (Between 301% and 400% relative to control) | – | –
30 | O=C(Nc1ccc(-c2nc3ccccc3[nH]2)cc1)c1ccc2c(c1)OCO2 [Example 540] | + (Up to 200% relative to control) | – | –
31 | c1csc(-c2nc3ccccc3[nH]2)c1 [Example 463] | + (Up to 200% relative to control) | – | –
32 | COc1ccc2oc(-c3ccc(C)c(N)c3)nc2c1 [Example 686] | ++ (Between 201% and 300% relative to control) | – | –
33 | Nc1ccc(O)c(-c2nc3cc(N)ccc3s2)c1 [Example 550] | + (Up to 200% relative to control) | – | –
34 | Nc1ccc2oc(-c3ccc(N4CCOCC4)cc3)nc2c1 [Example 159, 2-(4-morpholinophenyl)benzo[d]oxazol-5-amine] | – | < 200 | –
35 | CCS(=O)(=O)c1ccc2oc(-c3ccc(C)cc3)nc2c1 [Example 179, 5-(ethylsulfonyl)-2-p-tolylbenzo[d]oxazole] | – | > 401 | –
36 | COc1ccc(-c2ccc3oc(-c4ccc(Cl)cc4)nc3c2)cn1 [Example 306, 2-(4-chlorophenyl)-5-(6-methoxypyridin-3-yl)benzo[d]oxazole] | – | – | Activity [2]: + (Up to 200% relative to control)
37 | CC(=O)Nc1ccc2[nH]c(-c3ccco3)nc2c1 [Example 534] | + (Up to 200% relative to control) | – | –
38 | CC(C)(C)c1ccc2oc(-c3ccc(N)cc3)nc2c1 [Example 593] | +++ (Between 301% and 400% relative to control) | – | –
39 | O=C(O)c1ccc2oc(-c3ccc4ccccc4c3)nc2c1 [Example 449, 2-(Naphthalen-2-yl)benzo[d]oxazole-5-carboxylic acid] | – | > 401 | –
40 | O=C(Nc1ccc2oc(-c3ccc(Cl)cc3)nc2c1)c1ccc(Cl)cc1 [Example 89, 4-chloro-N-(2-(4-chlorophenyl)benzo[d]oxazol-5-yl)benzamide] | – | < 200 | –

Row | SMILES | Activity [1] | activity at 10 µM [2] [%] | other results
41 | CCCCc1ccc(-c2nc3cc([N+](=O)[O-])ccc3o2)nc1 [Example 250, 2-(5-butylpyridin-2-yl)-5-nitrobenzo[d]oxazole] | – | < 200 | –
42 | CCS(=O)(=O)c1ccc2oc(C3CCCCC3)nc2c1 [Example 392, 2-cyclohexyl-5-(ethylsulfonyl)benzo[d]oxazole] | – | < 200 | –
43 | CC(=O)Nc1ccc(-c2nc3cc(NC(=O)C(C)C)ccc3o2)cc1 [Example 374, N-(2-(4-acetamidophenyl)benzo[d]oxazol-5-yl)isobutyramide] | – | < 200 | –
44 | CSc1ccc2nc(-c3ccc(Cl)cc3)sc2c1 [Example 399, 2-(4-chlorophenyl)-6-(methylthio)benzo[d]thiazole] | – | 301 to 400 | –
45 | Cc1ccccc1-c1nc2cc(N)ccc2o1 [Example 205, 2-o-tolylbenzo[d]oxazol-5-amine] | – | 301 to 400 | –
46 | Nc1ccc2oc(-c3cccc4ccccc34)nc2c1 [Example 577] | + (Up to 200% relative to control) | – | –
47 | c1ccc2nc(-c3nc4ccccc4s3)ccc2c1 [Example 639] | +++ (Between 301% and 400% relative to control) | – | –
48 | CC(C)C(=O)Nc1ccc2nc(-c3ccc(Cl)c(Cl)c3)oc2c1 [Example 370, N-(2-(3,4-dichlorophenyl)benzo[d]oxazol-6-yl)isobutyramide] | – | > 401 | –
49 | Cc1ccc(C(=O)Nc2ccc3oc(-c4ccc(Cl)cc4)nc3c2)cc1 [Example 90, N-(2-(4-chlorophenyl)benzo[d]oxazol-5-yl)-4-methylbenzamide] | – | < 200 | –
50 | COc1ccc(-c2nc3cc(N)ccc3o2)cc1 [Example 512] | + (Up to 200% relative to control) | – | –
51 | c1ccc(-c2ccc3oc(-c4ccccc4)nc3c2)cc1 [Example 85, 2,5-diphenylbenzo[d]oxazole] | – | 301 to 400 | –
52 | Nc1ccc(-c2nc3cc(-c4ccc(Cl)cc4)ccc3o2)cc1 [Example 356, 4-(5-(4-chlorophenyl)benzo[d]oxazol-2-yl)aniline] | – | < 200 | –
53 | Nc1cc(-c2nc3ccccc3[nH]2)ccc1Cl [Example 653] | +++ (Between 301% and 400% relative to control) | – | –
54 | CC(C)CNc1ccc2oc(-c3ccc(Cl)cc3)nc2c1 [Example 183, 2-(4-chlorophenyl)-N-isobutylbenzo[d]oxazol-5-amine] | – | 301 to 400 | –
55 | CCc1ccc2oc(-c3cc(N)ccc3O)nc2c1 [Example 551] | + (Up to 200% relative to control) | – | –
56 | Clc1ccc2nc(-c3ccccc3)oc2c1 [Example 112, 6-chloro-2-phenylbenzo[d]oxazole] | – | < 200 | –
57 | Clc1ccc(-c2nc3cc(-c4ccc(N5CCOCC5)nc4)ccc3o2)cc1 [Example 316, 2-(4-chlorophenyl)-5-(6-morpholinopyridin-3-yl)benzo[d]oxazole] | – | < 200 | –
58 | CCN(CC)c1ccc(-c2nc3cc(N)ccc3o2)cc1 [Example 17, 2-(4-(diethylamino)phenyl)benzo[d]oxazol-5-amine] | – | – | Activity [2]: + (Up to 200% relative to control)
59 | CCS(=O)(=O)c1ccc2oc(-c3ccc4c(c3)CCCC4)nc2c1 [Example 444, 5-(ethylsulfonyl)-2-(5,6,7,8-tetrahydronaphthalen-2-yl)benzo[d]oxazole] | – | 301 to 400 | –
60 | c1ccc2cc(-c3nc4ccccc4o3)ccc2c1 [Example 450, 2-(Naphthalen-2-yl)benzo[d]oxazole] | – | > 401 | –
